Patent US20220252625A1, “TREATMENT AND DIAGNOSIS OF CHRONIC INFLAMMATORY CONDITIONS IN THE LOWER URINARY TRACT” (SELECTIMMUNE PHARMA AB, priority 2019, published 2022)
“Also recorded” adds a separate entry of the source.

Tests used:
Assay type in all cases: in vivo, human
[1] = tested on: patients with chronic pelvic pain syndrome (CPPS); assay: Investigator driven open trial, ten CPPS patients: symptoms, quality of life, side effects
Method: Here we identify that IL-1RA treatment may be useful to alleviate bladder pain. The hypothesis was evaluated by enrolling ten patients with chronic pelvic pain syndrome, (CPPS) in an investigator driven open trial (see below and FIG. 7). The patients received daily anakinra treatment (100 mg) until a stable response was observed. Treatment was then transiently interrupted and when the symptoms returned, treatment was resumed. Patient 10 remained asymptomatic.
Ten patients with a long history of CPPS were enrolled after informed consent (age, gender, disease profile) and instructed to fill in a questionnaire detailing frequency of urination, pain, frequency of pain medication and quality of life.
A significant reduction in pain, urgency and frequency of urination was recorded in 9/10 patients (FIGS. 7c, 7d and 7e). Laboratory samples were obtained at diagnosis, after the initiation of anakinra treatment (n=10), during the “treatment break” and after continuation of anakinra treatment (n=9). Urine neuropeptides involved in the pain response (Substance P) were inhibited, with a biphasic response following the symptom score (FIG. 7f).

Substance P [2] = assay: BPS trial: urine Substance P / neuropeptide levels; conditions: for urine SP / neuropeptide levels, words: in vivo
Source text: (§1) a) Schematic of the study protocol. Ten patients with a long history of BPS (ref EAU guidelines) were enrolled after informed consent and instructed to fill in a questionnaire detailing frequency of urination, pain, frequency of pain medication and quality of life. Laboratory samples were obtained at diagnosis, after the initiation of Kineret treatment (n=10), during the “treatment break” and after continuation of Kineret treatment (n=9). Neuropeptides involved in the pain response (Substance P) were quantified in urine. Peripheral blood RNA was subjected to genome wide transcriptomic analysis to define molecular effects of Kineret treatment.

[3] = tested on: patients with bladder pain syndrome (BPS); assay: Open label trial, ten BPS patients: symptoms, quality of life, side effects
Method: The inventors have tested the hypothesis that IL-1RA treatment may be useful to alleviate bladder pain. Ten patients with BPS were enrolled in an investigator-driven open trial. The patients received daily Kineret treatment (100 mg) for seven days. Treatment was then transiently interrupted and if the symptoms returned, treatment was resumed.
as §1
In this study, we addressed if IL-1RA treatment might be efficient in patients with chronic bladder pain. We conducted an explorative, open label trial in patients with BPS (Table 5). Patients received daily subcutaneous injections of Anakinra (100 mg) for seven days and the therapeutic effects were recorded. To address potential placebo effects, treatment was transiently interrupted for a maximum of 14 days and when the symptoms returned, treatment was resumed and continued with individual treatment regimes. […] In the remaining patients, bladder pathology was not detected. During the study, patients were instructed to keep a symptom journal recording the sensation of pain and the frequency of micturition.

[4] = tested on: neuroinflammation and IL-1-dependent gene expression; assay: Ten-patient CPPS trial: gene expression analysis of peripheral blood RNA
Source text: Blood samples for DNA- and RNA-analyses as well as urine samples for proteomics are obtained throughout the study.

Substance P [5] = assay: Urine Substance P (SP) concentration, patients with chronic cystitis
Method: Samples: Blood and urine samples for investigation of inflammatory processes as well as genetic and proteomic analyses.
For evaluation of the levels of systemic and local inflammatory processes, analyses of CRP, neutrophil count and Interleukins are performed in serum and urine.
To be able to define a treatment group where anakinra might serve as an effective therapeutic option, we searched for urine biomarkers. In addition to patient urine samples, samples were collected from healthy controls to compare urine concentrations of IL-1β and Substance P (SP). […] In contrast, SP concentrations was increased in patients during maximum symptoms (209 vs 75 pg/ml, P=0.003), indicating a biomarker for bladder inflammation (FIG. 2).

anakinra: interleukin-1 receptor antagonist (r-metHuIL-1ra) produced in Escherichia coli; recombinant, slightly modified version of the human interleukin-1 receptor antagonist protein
symptom score (pain and frequency), words ([1]; P<0.01): reduction in symptom score
quality of life, words ([1]; P<0.02): increase in quality of life
patients with dramatic clinical effects ([1]; daily 100 mg, ten CPPS patients): 9/10
duration of symptom relief ([1]; range over patients): 0.5 to 8 days
time to symptom relief after the first dose ([1]; range over patients): 1 to 6 h
patients with significant reduction in pain, urgency and frequency of urination ([1]; ten CPPS patients): 9/10
side effects ([1]; ten CPPS patients, 100 mg): Two patients reported local irritation at the injection site; also recorded: one patient developed neutropenia
patients with reduced SP levels (Substance P [2]; first treatment round): 9/10
urine SP / neuropeptide levels, words (Substance P [2]): markedly decreased
urine SP / neuropeptide levels, words (Substance P [2]; listed as Kineret): rapid reduction
patients with dramatic clinical improvement ([3]; daily 100 mg for seven days, ten BPS patients): 9/10
lasting therapeutic effects ([3]; human, in vivo): 3 days
quality of life, words ([3]; human, in vivo): increased quality of life
side effects ([3]; human, in vivo): Two patients reported local irritation at the injection site
symptom score (pain and frequency), words ([3]; human, in vivo): reduction in symptom score
quality of life, words ([3]; human, in vivo, listed as Kineret): marked increase in quality of life
symptom relief at the onset of treatment, median ([3]; median): 2 h
patients with complete, or close to complete clinical response ([3]; of ten patients): Nine of the patients
relief of symptoms after the first injection ([3]; one patient with very severe BPS/ICS): 1 to 2 h
duration of symptom relief ([3]; range over patients): 0.5 to 8 days
time to symptom relief after the first dose ([3]; range over patients): 1 to 6 h
gene expression at the RNA level, words [4]: inhibited neuroinflammation and IL-1-dependent gene expression; also recorded: reduction in neuro-inflammation
urine SP levels after Anakinra treatment (Substance P [5]; FIG. 3): reduced
urine SP concentration at time of minimum symptom, after treatment (Substance P [5]; paired samples, P=0.02): 136 pg/mL
urine SP concentration at time of maximum symptom (Substance P [5]; paired samples, baseline of the comparison, P=0.02): 243 pg/mL
